Assay results reported in patent US20060198882A1, “Stable liposomes or micelles comprising a sphinolipid and a peg-lipopolymer” (priority 2003, published 2006).
Values joined by “and” are separate entries in the source; they are usually repeats but may differ in a detail not shown here. Identical values can stand only once. Like-named read-outs stand apart in the source and are kept apart here.

Legend:
[1] = Partition in the two phases of the Dole system; format: physicochemical
Description: The distribution of the C18 sphingosine-based ceramides with different acyl chain lengths and of DMS between the polar phase and respectively less polar phase (as defined below) of the Dole two phase system was determined. […] The different ceramides included: short (C2 Cer and C4 Cer), medium (C6 Cer and C8 Cer), long (C16 Cer). […] In: Liposome Technology 2nd Edn., G Gregoriadis (Ed.) CRC Press, Boca Raton, 1993, vol. 1, pp: 527-616]. The amount of each of the lipids used in each of the two phases was measured by thin-layer chromatography (TLC). For ceramide quantification TLC was developed in a solvent system containing chloroform/methanol (95:5 v/v). For DMS quantification TLC was developed in a solvent system containing chloroform/methanol/ammonia (89/9/2 v/v). Further, the TLC plate was sprayed with Copper sulfate reagent composed of 100 g anhydrous copper sulfate containing 80 ml of phosphoric acid (85%), %) dissolved in 600 ml of DDW. Copper sulphate reagent was applied to the plates by spraying, then heated and lipids appeared as dark brown spot. […] Quantity of ceramides in each phase was calculated from a standard curve of appropriate ceramide. […] (1993)Supra]. The distribution between the two Dole system phases was determined by the equation (as exemplified for ceramide): [formula] [formula] Where Kp denotes the partition coefficient of a given lipid or amphiphile referred to in the equation as lipid; Cer denotes ceramide; up is an abbreviation for the heptane rich low polarity upper phase and lp is an abbreviation for the polar isopropanol water rich lower phase.

[2] = Partition in the two phases of the Dole system; format: physicochemical; remark: listed apart in the source
[3] = tested on: OV-1063; assay: Methylene blue assay of cell survival; format: cell-based, human; details: Table 8B
Source text: (§1) Several tumor cell lines in monolayers were used. A human ovarian carcinoma cell line (OV-1063), established at the Hadassah University Hospital, a human colon carcinoma cell line (C-26), a DOX-sensitive M-109S ([…]), and a DOX-resistant, M-109R ([…]). All cell lines were maintained in RPMI-1640 medium supplemented with 10% FCS, antibiotics, and glutamine. All culture medium components were purchased from Biological Industries (Beit-HaEmek, Israel). Both cell lines were maintained at 37° C. in a water-jacketed CO2 incubator.
(§2) a) Various ceramides (Cer) with different chain lengths: short (C2 Cer and C4 Cer), medium (C6 Cer and C8 Cer), and long (C16 Cer) were first dissolved in 100% ethanol to a concentration of 30 mM, added to a serum-containing medium and mixed immediately. The final ethanol concentration in the serum-containing culture medium ranged from 0.1-0.5% (depending on the type of ceramide (Cer)).
(§3) b) Various ceramides with different chain lengths: short C2 Cer, medium C6 Cer, and long C16 Cer were dissolved in ethanol:dodecane (98:2 v/v) to a concentration of 30 mM and added to serum-free medium and mixed. Final concentrations of the ethanol and dodecane in the culture medium containing 10% of FCS ranged from 0.098-0.49% and 0.002-0.01%, respectively, depending on the type of ceramide.
(§4) The cytotoxicity of the examined assemblies comprising ceramide was tested by the methylene blue ([…]) staining assay [Gorodetsky, R. et al. Int. J. Cancer. 75:635-642 (1998)]. A known number of exponentially growing cells in 200 μL of medium were plated in 96-microwell, flat-bottomed plates. For each of the variants tested, 4 wells were used. Following 24 hr of incubation in culture, 20 μL of different concentrations of the examined assemblies were added to each well containing untreated cells.
(§5) The following controls were used: Citrate buffer (5 mM, pH 7); Ethanol solution in medium RPMI 1640 (final concentration of 0.1%); A solution RPMI 1640 of ethanol:dodecane (98:2 […]) at a final concentration of 0.1% and 0.2%, respectively.
(§6) Cells were exposed to assemblies for 4, 24, 72 or 96 hr. At the end of assembly exposure, for a fixed time interval, the drug-treated cells, as well as parallel control cells, were washed, and the incubation continued in fresh medium until termination of the experiment. Following 72 hr or 96 hr of growth, cells were fixed by adding 50 μL of 2.5% glutaraldehyde to each well for 15 min. Fixed cells were rinsed 10 times with deionized water and once with borate buffer (0.1 M, pH 8.5), dried, and stained with MB (100 μL of 1% solution in 0.1 M borate buffer, pH 8.5) for 1 h at room temperature (r.t.). Stained cells were rinsed thoroughly with de-ionized water to remove any non-cell-bound dye and then dried. The MB bound to the fixed cells was extracted by incubation at 37° C. with 200 μL of 0.1 N HCl for 1 h, and the net optical density of the dye in each well was determined by a plate spectrophotometer (Labsystems Multyskan Bichromatic, Finland) at 620 nm.

[4] = tested on: C-26; assay: Methylene blue assay of cell survival; format: cell-based, human; details: Table 8B
Source text: as §1, §2, §3, §4, §5, §6

[5] = Surface-pressure area isotherms; format: physicochemical; details: for minimal area per molecule: constant pressure of 20 mN/m; for collapse point pressure of monolayer: pure water sub-phase; for Area/molecule: table, monolayer on pure water sub-phase
Description: The tested ceramides (C2 Cer, C4 Cer, C6 Cer, C8 Cer, C16 Cer) were dried in vacuum overnight, weighted and dissolved in hexane/isopropanol (3:2 vol.) to make the following stock solutions.
The surface-pressure/area isotherms were obtained on pure water sub-phase (similar isotherms were obtained on 140 mM NaCl). Barrier speed during compression was […] for all monolayers.
The minimal area per molecule of different ceramides (C2 Cer, C4 Cer, C6 Cer, C8 Cer, C16 Cer) was calculated at the constant pressure of 20 mN/m. […] The area per molecule of C2 Cer, C4 Cer, C8 Cer, C16 Cer was about 38, 46, 45.5, and 37.5^2, respectively.

[6] = tested on: OV-1063 cells; assay: Apoptosis by chromatin morphology (Hoechst-33342, confocal microscopy); format: cell-based, human; details: 24 hr
Description: (§7) a) The morphology of chromatin was assessed by staining with Hoechst-33342 obtained from Calbiochem (La Jolla, Calif.), a molecule which when reside in the minor groove of the DNA strand enhance its fluorescence intensity and, therefore, it is preferentially stains dsDNA [Jouvet, P. Mol. Biol. Cell 11:1919-1932 (2000)]. Briefly, samples containing 5*10^5 cells were cultured on 6-well plates covered with a glass coverslip. After treatment of cells with IC50 of drugs, cells were washed with PBS and fixated with 4% formaldehyde. After that cells were stained with Hoechst-33342 (5 μg/ml) and washed. Thereafter, glass coverslip was placed on a glass slide and photographed using a CLMS.

[7] = tested on: C-26 cells; assay: as above; format: cell-based, human; details: 24 hr
Description: as §7

[8] = read-out: IC50 (μM), 4 hr OV-1063
[9] = read-out: IC50 (μM), 24 hr OV-1063
[10] = read-out: IC50 (μM), 72 hr OV-1063
[11] = read-out: IC50 (μM), 24 hr C-26
[12] = read-out: IC50 (μM), 72 hr C-26

Row | Compound | % of lipid in heptane-rich upper phase ([1]; Dole two phase system) | % of lipid in isopropanol/water lower phase ([1]; Dole two phase system) [%] | Kp (heptane rich/isopropanol and water rich partition coefficient) ([1]; Dole two phase system) | Liposome formation (being a liposome forming lipid by itself) [2] | Kp (heptane rich/isopropanol and water rich partition coefficient) [1] | IC50 [3, 8] [µM] | IC50 [3, 9] [µM] | IC50 [3, 10] [µM] | IC50 ([4]; read-out: IC50 (μM), 4 hr C-26) [µM] | IC50 [4, 11] [µM] | IC50 [4, 12] [µM] | minimal area per molecule [5] [Å^2] | collapse point pressure of monolayer [5] | Area/molecule [5] [A^2] | Apoptotic OV-1063 cells (% of total cell number), 24 hr [6] [%] | Apoptotic C-26 cells (% of total cell number), 24 hr [7] [%] | monolayer stability [5]
1 | Egg phosphatidylcholine [EPC] | 15.2% | 84.8 | 0.35 | Yes | – | – | – | – | – | – | – | – | – | – | – | – | –
2 | CCCCCCCCCCCCC/C=C/[C@@H](O)[C@H](CO)NC(=O)CCCCCCC [C8Cer, N-octanoyl-D-erythro-sphingosine] | 72% | 28 | – | No | 5.25 | > 40 | 23.7 ± 1 | 19 ± 1.4 | > 40 | 23 ± 1.4 | 21.5 ± 2.1 | ~45.5 | about 42 mN/m | 45.5 | – | – | –
3 | CCCCCCCCCCCCC/C=C/[C@@H](O)[C@H](CO)NC(=O)CCC [C4Cer, N-tetranoyl-D-erythro-sphingosine] | 32% and 31.5% | 68.5 | – | No | 0.92 | 10 ± 2.7 | 5.9 ± 0.14 | 3.95 ± 0.6 | 15.5 ± 3.5 | 6.25 ± 0.35 | 3.75 ± 0.35 | ~46 | about 42 mN/m | 46 | 58 | 10 | almost as stable as all the others
4 | hydrogenated soybean phosphatidylcholine [HSPC] | 36% | 64 | 1.13 | Yes | – | – | – | – | – | – | – | – | – | – | – | – | –
